This note sets out measurements from patent US5591714A, “Derivatives of A82846” (priority 1994, dated 1997).

Holding throughout (assay): In vivo activity, experimentally infected mice (ED50)
One test has as its system Streptococcus pneumoniae. The conditions noted are these: Streptococcus pneumoniae infection; doses administered subcutaneously to mice 1 and 4 hours postinfection.
The next test deals with Staphylococcus aureus. The following applies: Staphylococcus aureus infection; doses administered subcutaneously to mice 1 and 4 hours postinfection.
A further test has as its system Streptococcus pyogenes. The conditions noted are these: Streptococcus pyogenes infection; doses administered subcutaneously to mice 1 and 4 hours postinfection.

As for `CNC(CC(C)C)C(=O)NC1C(=O)NC(CC(N)=O)C(=O)NC2C(=O)NC3C(=O)NC(C(=O)NC(C(=O)O)c4cc(O)cc(O)c4-c4cc3ccc4O)C(OC3CC(C)(NCc4ccccc4)C(O)C(C)O3)c3ccc(c(Cl)c3)Oc3cc2cc(c3OC2OC(CO)C(O)C(O)C2OC2CC(C)(NCc3ccccc3)C(O)C(C)O2)Oc2ccc(cc2Cl)C1O` (stereo not shown) [Compound 53], the ED50 amounted to 0.18 mg/kg/2 with Streptococcus pneumoniae, 1.25 mg/kg/2 in the test with Staphylococcus aureus and 0.2 mg/kg/2 with Streptococcus pyogenes.

`CCCCCN[C@@]1(C)C[C@H](O[C@H]2[C@H](Oc3c4cc5cc3Oc3ccc(cc3Cl)[C@@H](O)[C@@H](NC(=O)[C@@H](CC(C)C)NC)C(=O)N[C@@H](CC(N)=O)C(=O)N[C@H]5C(=O)N[C@H]3C(=O)N[C@H](C(=O)N[C@H](C(=O)O)c5cc(O)cc(O)c5-c5cc3ccc5O)[C@H](O[C@H]3C[C@](C)(N)[C@@H](O)[C@H](C)O3)c3ccc(cc3)O4)O[C@H](CO)[C@@H](O)[C@@H]2O)O[C@@H](C)[C@@H]1O` [Compound 5]: the results for the ED50 with Streptococcus pneumoniae, in the test with Staphylococcus aureus and with Streptococcus pyogenes were 0.1 mg/kg/2, 0.92 mg/kg/2 and 0.17 mg/kg/2, respectively.

On to `CNC(CC(C)C)C(=O)NC1C(=O)NC(CC(N)=O)C(=O)NC2C(=O)NC3C(=O)NC(C(=O)NC(C(=O)O)c4cc(O)cc(O)c4-c4cc3ccc4O)C(OC3CC(C)(NCc4ccc(Br)cc4)C(O)C(C)O3)c3ccc(c(Cl)c3)Oc3cc2cc(c3OC2OC(CO)C(O)C(O)C2OC2CC(C)(NCc3ccc(Br)cc3)C(O)C(C)O2)Oc2ccc(cc2Cl)C1O` (stereo not shown) [Compound 59], for which the ED50 in the test on Streptococcus pneumoniae is on record as < 0.31 mg/kg/2; in the test with Staphylococcus aureus, 3.16 mg/kg/2; in the test on Streptococcus pyogenes, 0.25 mg/kg/2.

`CCCCCN[C@@]1(C)C[C@H](O[C@H]2[C@H](Oc3c4cc5cc3Oc3ccc(cc3Cl)[C@@H](O)[C@@H](NC(=O)[C@@H](CC(C)C)N(C)CCCCC)C(=O)N[C@@H](CC(N)=O)C(=O)N[C@H]5C(=O)N[C@H]3C(=O)N[C@H](C(=O)N[C@H](C(=O)O)c5cc(O)cc(O)c5-c5cc3ccc5O)[C@H](O[C@H]3C[C@](C)(NCCCCC)[C@@H](O)[C@H](C)O3)c3ccc(cc3)O4)O[C@H](CO)[C@@H](O)[C@@H]2O)O[C@@H](C)[C@@H]1O` [Compound 8]: the ED50 in the test on Streptococcus pneumoniae is > 4.0 mg/kg/2; in the test on Staphylococcus aureus it was > 4.0 mg/kg/2; with Streptococcus pyogenes it was 2.69 mg/kg/2.

Turning to `CCCCCCCCN(C)[C@H](CC(C)C)C(=O)N[C@H]1C(=O)N[C@@H](CC(N)=O)C(=O)N[C@H]2C(=O)N[C@H]3C(=O)N[C@H](C(=O)N[C@H](C(=O)O)c4cc(O)cc(O)c4-c4cc3ccc4O)[C@H](O[C@H]3C[C@](C)(N)[C@@H](O)[C@H](C)O3)c3ccc(c(Cl)c3)Oc3cc2cc(c3O[C@@H]2O[C@H](CO)[C@@H](O)[C@H](O)[C@H]2O[C@H]2C[C@](C)(N)[C@@H](O)[C@H](C)O2)Oc2ccc(cc2Cl)[C@H]1O` [Compound 39], the ED50 in the test on Streptococcus pneumoniae is 0.34 mg/kg/2; in the test on Staphylococcus aureus it was 1.22 mg/kg/2; with Streptococcus pyogenes it was 0.18 mg/kg/2.

As for `CCCCCCCCCCN[C@@]1(C)C[C@H](O[C@H]2[C@H](Oc3c4cc5cc3Oc3ccc(cc3Cl)[C@@H](O)[C@@H](NC(=O)[C@@H](CC(C)C)NC)C(=O)N[C@@H](CC(N)=O)C(=O)N[C@H]5C(=O)N[C@H]3C(=O)N[C@H](C(=O)N[C@H](C(=O)O)c5cc(O)cc(O)c5-c5cc3ccc5O)[C@H](O[C@H]3C[C@](C)(N)[C@@H](O)[C@H](C)O3)c3ccc(cc3)O4)O[C@H](CO)[C@@H](O)[C@@H]2O)O[C@@H](C)[C@@H]1O` [Compound 9], the ED50 in the test with Streptococcus pyogenes was determined as 0.68 mg/kg/2.

In the case of `CNC(CC(C)C)C(=O)NC1C(=O)NC(CC(N)=O)C(=O)NC2C(=O)NC3C(=O)NC(C(=O)NC(C(=O)O)c4cc(O)cc(O)c4-c4cc3ccc4O)C(OC3CC(C)(NCc4ccc(F)cc4)C(O)C(C)O3)c3ccc(c(Cl)c3)Oc3cc2cc(c3OC2OC(CO)C(O)C(O)C2OC2CC(C)(NCc3ccc(F)cc3)C(O)C(C)O2)Oc2ccc(cc2Cl)C1O` (stereo not shown) [Compound 68], the ED50 worked out at 0.12 mg/kg/2 in the test on Streptococcus pneumoniae, 0.80 mg/kg/2 in the test with Staphylococcus aureus and 0.09 mg/kg/2 in the test on Streptococcus pyogenes.

Turning to `CC(C)CC(C(=O)NC1C(=O)NC(CC(N)=O)C(=O)NC2C(=O)NC3C(=O)NC(C(=O)NC(C(=O)O)c4cc(O)cc(O)c4-c4cc3ccc4O)C(OC3CC(C)(N)C(O)C(C)O3)c3ccc(c(Cl)c3)Oc3cc2cc(c3OC2OC(CO)C(O)C(O)C2OC2CC(C)(N)C(O)C(C)O2)Oc2ccc(cc2Cl)C1O)N(C)Cc1ccccc1` (stereo not shown) [Compound 52], the values for the ED50 with Streptococcus pneumoniae and in the test on Streptococcus pyogenes were 0.75 mg/kg/2 and 0.5 mg/kg/2, respectively.

Regarding `CCCCCCCCN[C@@]1(C)C[C@H](O[C@H]2[C@H](Oc3c4cc5cc3Oc3ccc(cc3Cl)[C@@H](O[C@H]3C[C@](C)(NCCCCCCCC)[C@@H](O)[C@H](C)O3)[C@@H]3NC(=O)[C@H](NC(=O)[C@@H]5NC(=O)[C@H](CC(N)=O)NC(=O)[C@H](NC(=O)[C@@H](CC(C)C)NC)[C@H](O)c5ccc(c(Cl)c5)O4)c4ccc(O)c(c4)-c4c(O)cc(O)cc4[C@@H](C(=O)O)NC3=O)O[C@H](CO)[C@@H](O)[C@@H]2O)O[C@@H](C)[C@@H]1O` [Compound 41], the ED50 with Streptococcus pneumoniae was determined as 0.32 mg/kg/2; in the test on Staphylococcus aureus, 1.22 mg/kg/2; in the test with Streptococcus pyogenes, 0.18 mg/kg/2.

For the compound `CNC(CC(C)C)C(=O)NC1C(=O)NC(CC(N)=O)C(=O)NC2C(=O)NC3C(=O)NC(C(=O)NC(C(=O)O)c4cc(O)cc(O)c4-c4cc3ccc4O)C(OC3CC(C)(NCC(c4ccccc4)c4ccccc4)C(O)C(C)O3)c3ccc(c(Cl)c3)Oc3cc2cc(c3OC2OC(CO)C(O)C(O)C2OC2CC(C)(N)C(O)C(C)O2)Oc2ccc(cc2Cl)C1O` (stereo not shown) [Compound 46], the ED50 was 0.22 mg/kg/2 in the test with Streptococcus pneumoniae, 0.75 mg/kg/2 in the test on Staphylococcus aureus and 0.14 mg/kg/2 in the test with Streptococcus pyogenes.

For the compound `CCCCCCCCN(C)[C@H](CC(C)C)C(=O)N[C@H]1C(=O)N[C@@H](CC(N)=O)C(=O)N[C@H]2C(=O)N[C@H]3C(=O)N[C@H](C(=O)N[C@H](C(=O)O)c4cc(O)cc(O)c4-c4cc3ccc4O)[C@H](O[C@H]3C[C@](C)(N)[C@@H](O)[C@H](C)O3)c3ccc(cc3)Oc3cc2cc(c3O[C@@H]2O[C@H](CO)[C@@H](O)[C@H](O)[C@H]2O[C@H]2C[C@](C)(N)[C@@H](O)[C@H](C)O2)Oc2ccc(cc2Cl)[C@H]1O` [Compound 2], the ED50 is given as 1.25 mg/kg/2 in the test with Streptococcus pneumoniae, > 5.0 mg/kg/2 in the test on Staphylococcus aureus and 0.79 mg/kg/2 in the test on Streptococcus pyogenes.

Regarding `CNC(CC(C)C)C(=O)NC1C(=O)NC(CC(N)=O)C(=O)NC2C(=O)NC3C(=O)NC(C(=O)NC(C(=O)O)c4cc(O)cc(O)c4-c4cc3ccc4O)C(OC3CC(C)(NCCCc4ccccc4)C(O)C(C)O3)c3ccc(c(Cl)c3)Oc3cc2cc(c3OC2OC(CO)C(O)C(O)C2OC2CC(C)(NCCCc3ccccc3)C(O)C(C)O2)Oc2ccc(cc2Cl)C1O` (stereo not shown) [Compound 50], the ED50 in the test on Streptococcus pneumoniae was 1.02 mg/kg/2; in the test with Staphylococcus aureus, > 5.0 mg/kg/2; in the test with Streptococcus pyogenes, 0.6 mg/kg/2.

`CCN(CC)c1ccc(CNC2(C)CC(OC3c4ccc(c(Cl)c4)Oc4cc5cc(c4OC4OC(CO)C(O)C(O)C4OC4CC(C)(NCc6ccc(N(CC)CC)cc6)C(O)C(C)O4)Oc4ccc(cc4Cl)C(O)C(NC(=O)C(CC(C)C)NC)C(=O)NC(CC(N)=O)C(=O)NC5C(=O)NC4C(=O)NC3C(=O)NC(C(=O)O)c3cc(O)cc(O)c3-c3cc4ccc3O)OC(C)C2O)cc1` (stereo not shown) [Compound 57]: the ED50 with Streptococcus pyogenes is reported as < 0.62 mg/kg/2.

As to `CN[C@H](CC(C)C)C(=O)N[C@H]1C(=O)N[C@@H](CC(N)=O)C(=O)N[C@H]2C(=O)N[C@H]3C(=O)N[C@H](C(=O)N[C@H](C(=O)O)c4cc(O)cc(O)c4-c4cc3ccc4O)[C@H](O[C@H]3C[C@](C)(NCCc4ccccc4)[C@@H](O)[C@H](C)O3)c3ccc(c(Cl)c3)Oc3cc2cc(c3O[C@@H]2O[C@H](CO)[C@@H](O)[C@H](O)[C@H]2O[C@H]2C[C@](C)(N)[C@@H](O)[C@H](C)O2)Oc2ccc(cc2Cl)[C@H]1O` [Compound 44], the values for the ED50 in the test on Streptococcus pneumoniae, in the test with Staphylococcus aureus and with Streptococcus pyogenes were 0.2 mg/kg/2, 0.3 mg/kg/2 and 0.125 mg/kg/2, respectively.

With `CN[C@H](CC(C)C)C(=O)N[C@H]1C(=O)N[C@@H](CC(N)=O)C(=O)N[C@H]2C(=O)N[C@H]3C(=O)N[C@H](C(=O)N[C@H](C(=O)O)c4cc(O)cc(O)c4-c4cc3ccc4O)[C@H](O[C@H]3C[C@](C)(NCCc4ccccc4)[C@@H](O)[C@H](C)O3)c3ccc(cc3)Oc3cc2cc(c3O[C@@H]2O[C@H](CO)[C@@H](O)[C@H](O)[C@H]2O[C@H]2C[C@](C)(N)[C@@H](O)[C@H](C)O2)Oc2ccc(cc2Cl)[C@H]1O` [Compound 25], the ED50 in the test on Streptococcus pneumoniae is given as 0.76 mg/kg/2; in the test on Staphylococcus aureus, > 1.0 mg/kg/2; with Streptococcus pyogenes, 0.50 mg/kg/2.

For `CNC(CC(C)C)C(=O)NC1C(=O)NC(CC(N)=O)C(=O)NC2C(=O)NC3C(=O)NC(C(=O)NC(C(=O)O)c4cc(O)cc(O)c4-c4cc3ccc4O)C(OC3CC(C)(NCc4cccc(Cl)c4)C(O)C(C)O3)c3ccc(c(Cl)c3)Oc3cc2cc(c3OC2OC(CO)C(O)C(O)C2OC2CC(C)(NCc3cccc(Cl)c3)C(O)C(C)O2)Oc2ccc(cc2Cl)C1O` (stereo not shown) [Compound 65], the results for the ED50 in the test with Streptococcus pneumoniae, in the test with Staphylococcus aureus and with Streptococcus pyogenes were 0.11 mg/kg/2, 1.59 mg/kg/2 and 0.15 mg/kg/2, respectively.

On to `CCCCCN[C@@]1(C)C[C@H](O[C@H]2[C@H](Oc3c4cc5cc3Oc3ccc(cc3Cl)[C@@H](O[C@H]3C[C@](C)(NCCCCC)[C@@H](O)[C@H](C)O3)[C@@H]3NC(=O)[C@H](NC(=O)[C@@H]5NC(=O)[C@H](CC(N)=O)NC(=O)[C@H](NC(=O)[C@@H](CC(C)C)N(C)CCCCC)[C@H](O)c5ccc(c(Cl)c5)O4)c4ccc(O)c(c4)-c4c(O)cc(O)cc4[C@@H](C(=O)O)NC3=O)O[C@H](CO)[C@@H](O)[C@@H]2O)O[C@@H](C)[C@@H]1O` [Compound 37], for which the ED50 with Streptococcus pneumoniae is listed as 0.88 mg/kg/2; in the test with Staphylococcus aureus, > 5.0 mg/kg/2; with Streptococcus pyogenes, 1.09 mg/kg/2.
